Source: ChEMBL document CHEMBL1142149, “In vitro activities of the lipopeptides palmitoyl (Pal)-Lys-Lys-NH(2) and Pal-Lys-Lys alone and in combination with antimicrobial agents against multiresistant gram-positive cocci” (2007)
Converted amounts (≈) assume the structure as drawn. The source made the active and inactive calls. No cut-off for these calls is given here.

Legend:
[1] = test system: Enterococcus faecalis; assay: Antimicrobial activity against vancomycin-susceptible Enterococcus faecalis ATCC 29212; format: functional; conditions: for MIC50 / MIC90: Enterococcus faecalis, ATCC 29212
[2] = test system: Staphylococcus aureus; assay: Antimicrobial activity against methicillin-resistant Staphylococcus aureus ATCC 43300; format: functional; conditions: for MIC50 / MIC90: Staphylococcus aureus, ATCC 43300
[3] = test system: Staphylococcus aureus; assay: Antimicrobial activity against methicillin-susceptible Staphylococcus aureus ATCC 29213; format: functional; conditions: for MIC50 / MIC90: Staphylococcus aureus, ATCC 29213
[4] = test system: Enterococcus faecalis; assay: Antimicrobial activity against vancomycin-resistant Enterococcus faecalis ATCC 51299; format: functional; conditions: for MIC50 / MIC90: Enterococcus faecalis, ATCC 51299
[5] = test system: Streptococcus pyogenes; assay: Antimicrobial activity against Streptococcus pyogenes ATCC 19615; format: functional; conditions: for MIC50 / MIC90: Streptococcus pyogenes, ATCC 19615
[6] = test system: Prescottella equi; assay: Antimicrobial activity against Rhodococcus equi ATCC 6939; format: functional; conditions: for MIC50 / MIC90: Rhodococcus (subgen. Prescottella) equi, ATCC 6939
[7] = test system: Erythrocyte; assay: Effect on hemolytic activity in human RBC above 50 mg/liter; format: functional, cell-based
[8] = test system: Erythrocyte; assay: Effect on hemolytic activity in human RBC above 20 mg/liter; format: functional, cell-based

| Structure (SMILES) | MBC50 [1] [µg/mL] | MBC90 [1] [µg/mL] | MIC50 [1] [µg/mL] | MIC90 [1] [µg/mL] | MIC50 [2] [µg/mL] | MIC90 [2] [µg/mL] | MBC50 [3] [µg/mL] | MBC90 [3] [µg/mL] | MIC50 [3] [µg/mL] | MIC90 [3] [µg/mL] | MIC50 [4] [µg/mL] | MIC90 [4] [µg/mL] | MBC50 [5] [µg/mL] | MBC90 [5] [µg/mL] | MIC50 [5] [µg/mL] | MIC90 [5] [µg/mL] | MBC50 [6] [µg/mL] | MBC90 [6] [µg/mL] | MIC50 [6] [µg/mL] | MIC90 [6] [µg/mL] | further results |
| --- | --- | --- | --- | --- | --- | --- | --- | --- | --- | --- | --- | --- | --- | --- | --- | --- | --- | --- | --- | --- | --- |
| CN[C@H](CC(C)C)C(=O)N[C@H]1C(=O)N[C@@H](CC(N)=O)C(=O)N[C@H]2C(=O)N[C@H]3C(=O)N[C@H](C(=O)N[C@H](C(=O)O)c4cc(O)cc(O)c4-c4cc3ccc4O)[C@H](O)c3ccc(c(Cl)c3)Oc3cc2cc(c3O[C@@H]2O[C@H](CO)[C@@H](O)[C@H](O)[C@H]2O[C@H]2C[C@](C)(N)[C@H](O)[C@H](C)O2)Oc2ccc(cc2Cl)[C@H]1O [VANCOMYCIN] | 2 (≈ 1.38 µM) | 4 (≈ 2.76 µM) | 1 (≈ 0.69 µM) | 2 (≈ 1.38 µM) | 0.5 (≈ 0.345 µM) | 2 (≈ 1.38 µM) | 0.5 (≈ 0.345 µM) | 2 (≈ 1.38 µM) | 0.5 (≈ 0.345 µM) | 1 (≈ 0.69 µM) | 32 (≈ 22.1 µM) | 64 (≈ 44.2 µM) | 1 (≈ 0.69 µM) | 2 (≈ 1.38 µM) | 0.5 (≈ 0.345 µM) | 1 (≈ 0.69 µM) | 8 (≈ 5.52 µM) | 16 (≈ 11 µM) | 0.5 (≈ 0.345 µM) | 1 (≈ 0.69 µM) | MBC50 [2]: 0.5 µg/mL (≈ 0.345 µM); MBC90 [2]: 2 µg/mL (≈ 1.38 µM); MBC50 [4]: 64 µg/mL (≈ 44.2 µM); MBC90 [4]: 256 µg/mL (≈ 177 µM) |
| CC(=O)NC[C@H]1CN(c2ccc(N3CCOCC3)c(F)c2)C(=O)O1 [LINEZOLID] | 2 (≈ 5.93 µM) | 4 (≈ 11.9 µM) | 1 (≈ 2.96 µM) | 2 (≈ 5.93 µM) | 0.5 (≈ 1.48 µM) | 1 (≈ 2.96 µM) | 1 (≈ 2.96 µM) | 2 (≈ 5.93 µM) | 0.5 (≈ 1.48 µM) | 2 (≈ 5.93 µM) | 1 (≈ 2.96 µM) | 2 (≈ 5.93 µM) | 1 (≈ 2.96 µM) | 2 (≈ 5.93 µM) | 0.5 (≈ 1.48 µM) | 1 (≈ 2.96 µM) | 8 (≈ 23.7 µM) | 16 (≈ 47.4 µM) | 0.5 (≈ 1.48 µM) | 1 (≈ 2.96 µM) | MBC50 [2]: 0.5 µg/mL (≈ 1.48 µM); MBC50 [4]: 4 µg/mL (≈ 11.9 µM) |
| CCCCCCCCCCCCCCCC(=O)N[C@@H](CCCCN)C(=O)N[C@@H](CCCCN)C(=O)O | 4 (≈ 7.8 µM) | 8 (≈ 15.6 µM) | 2 (≈ 3.9 µM) | 4 (≈ 7.8 µM) | 4 (≈ 7.8 µM) | 8 (≈ 15.6 µM) | 8 (≈ 15.6 µM) | 16 (≈ 31.2 µM) | 4 (≈ 7.8 µM) | 8 (≈ 15.6 µM) | 2 (≈ 3.9 µM) | 4 (≈ 7.8 µM) | 2 (≈ 3.9 µM) | 4 (≈ 7.8 µM) | 1 (≈ 1.95 µM) | 2 (≈ 3.9 µM) | 4 (≈ 7.8 µM) | 16 (≈ 31.2 µM) | 2 (≈ 3.9 µM) | 16 (≈ 31.2 µM) | Activity [7]: Active; MBC90 [4]: 16 µg/mL (≈ 31.2 µM) |
| CC[C@H]1OC(=O)[C@H](C)[C@@H](O[C@H]2C[C@@](C)(OC)[C@@H](O)[C@H](C)O2)[C@H](C)[C@@H](O[C@@H]2O[C@H](C)C[C@H](N(C)C)[C@H]2O)[C@](C)(O)C[C@@H](C)C(=O)[C@H](C)[C@@H](O)[C@]1(C)O [ERYTHROMYCIN] | 32 (≈ 43.6 µM) |  | 8 (≈ 10.9 µM) | 32 (≈ 43.6 µM) | 4 (≈ 5.45 µM) | 32 (≈ 43.6 µM) | 16 (≈ 21.8 µM) | 64 (≈ 87.2 µM) | 4 (≈ 5.45 µM) | 8 (≈ 10.9 µM) | 16 (≈ 21.8 µM) | 64 (≈ 87.2 µM) | 8 (≈ 10.9 µM) | 32 (≈ 43.6 µM) | 4 (≈ 5.45 µM) | 8 (≈ 10.9 µM) | 32 (≈ 43.6 µM) | 64 (≈ 87.2 µM) | 0.5 (≈ 0.681 µM) | 2 (≈ 2.73 µM) | MBC50 [2]: 32 µg/mL (≈ 43.6 µM) |
| C[C@@H](O)[C@H]1C(=O)N2C(C(=O)O)=C(SCCNC=N)C[C@H]12 [IMIPENEM ANHYDROUS] | 16 (≈ 53.4 µM) | 64 (≈ 214 µM) | 4 (≈ 13.4 µM) | 16 (≈ 53.4 µM) | 16 (≈ 53.4 µM) | 128 (≈ 428 µM) | 4 (≈ 13.4 µM) | 8 (≈ 26.7 µM) | 0.5 (≈ 1.67 µM) | 2 (≈ 6.68 µM) | 16 (≈ 53.4 µM) | 64 (≈ 214 µM) | 1 (≈ 3.34 µM) | 4 (≈ 13.4 µM) | 0.5 (≈ 1.67 µM) | 1 (≈ 3.34 µM) | 8 (≈ 26.7 µM) | 16 (≈ 53.4 µM) | 0.25 (≈ 0.835 µM) | 1 (≈ 3.34 µM) | MBC50 [2]: 64 µg/mL (≈ 214 µM); MBC90 [2]: 256 µg/mL (≈ 855 µM); MBC50 [4]: 64 µg/mL (≈ 214 µM); MBC90 [4]: 128 µg/mL (≈ 428 µM) |
| C[C@H]1c2cccc(O)c2C(=O)C2=C(O)[C@]3(O)C(=O)C(C(N)=O)=C(O)[C@@H](N(C)C)[C@@H]3[C@@H](O)[C@@H]21.O [DOXYCYCLINE] | 16 | 64 | 4 | 32 | 4 | 16 | 8 | 32 | 2 | 8 | 16 | 64 | 8 | 16 | 2 | 8 | 32 | 128 | 1 | 2 |  |
| CCCCCCCCCCCCCCCC(=O)N[C@@H](CCCCN)C(=O)N[C@@H](CCCCN)C(N)=O | 4 (≈ 7.82 µM) | 8 (≈ 15.6 µM) | 2 (≈ 3.91 µM) | 4 (≈ 7.82 µM) | 4 (≈ 7.82 µM) | 8 (≈ 15.6 µM) | 8 (≈ 15.6 µM) | 16 (≈ 31.3 µM) | 4 (≈ 7.82 µM) | 8 (≈ 15.6 µM) | 2 (≈ 3.91 µM) | 4 (≈ 7.82 µM) | 2 (≈ 3.91 µM) | 4 (≈ 7.82 µM) | 1 (≈ 1.95 µM) | 2 (≈ 3.91 µM) | 8 (≈ 15.6 µM) | 32 (≈ 62.5 µM) | 4 (≈ 7.82 µM) | 16 (≈ 31.3 µM) | MBC90 [4]: 16 µg/mL (≈ 31.3 µM); Activity [8]: Active |
| CC1(C)S[C@@H]2[C@H](NC(=O)[C@H](N)c3ccc(O)cc3)C(=O)N2[C@H]1C(=O)O [AMOXICILLIN] | 16 (≈ 43.8 µM) | 64 (≈ 175 µM) | 4 (≈ 10.9 µM) | 16 (≈ 43.8 µM) | 32 (≈ 87.6 µM) | 128 (≈ 350 µM) | 8 (≈ 21.9 µM) | 16 (≈ 43.8 µM) | 1 (≈ 2.74 µM) | 4 (≈ 10.9 µM) | 16 (≈ 43.8 µM) | 64 (≈ 175 µM) | 4 (≈ 10.9 µM) | 8 (≈ 21.9 µM) | 0.25 (≈ 0.684 µM) | 2 (≈ 5.47 µM) | 8 (≈ 21.9 µM) | 32 (≈ 87.6 µM) | 1 (≈ 2.74 µM) | 2 (≈ 5.47 µM) | MBC50 [2]: 64 µg/mL (≈ 175 µM); MBC90 [2]: 256 µg/mL (≈ 701 µM); MBC50 [4]: 64 µg/mL (≈ 175 µM); MBC90 [4]: 128 µg/mL (≈ 350 µM) |
